Source: patent publication US10894793B2, “Bicyclic pyridine, pyrazine, and pyrimidine derivatives as PI3K beta inhibitors” (Janssen Pharmaceutica NV, priority 2016, dated 2021)
pIC50, pKd: −log10 of the molar value. Like-named read-outs stand apart in the source and are kept apart here.

Columns and labels:
MTOR_h = biological target: T1, MTOR_h (Homo sapiens, UniProt P42345); assay: Enzyme binding assay (KINOMEscan); conditions: DiscoveRx
T1 construct: purchased DiscoveRx Corporation
Method: (§1) Enzyme Binding Assays (KINOMEscan®)
(§2) Kinase enzyme binding affinities of compounds disclosed herein were determined using the KINOMEscan technology performed by DiscoveRx Corporation, San Diego, Calif., USA (www.kinomescan.com). Table A reports the obtained Kd values (nM), with the Kd being the inhibitor binding constant: […]

PIK3Cα_h = biological target: T2, PIK3Cα_h (Homo sapiens, UniProt P42336); assay: Enzyme binding assay (KINOMEscan); conditions: DiscoveRx
T2 construct: purchased DiscoveRx Corporation
T2 sequence (P42336 whole entry): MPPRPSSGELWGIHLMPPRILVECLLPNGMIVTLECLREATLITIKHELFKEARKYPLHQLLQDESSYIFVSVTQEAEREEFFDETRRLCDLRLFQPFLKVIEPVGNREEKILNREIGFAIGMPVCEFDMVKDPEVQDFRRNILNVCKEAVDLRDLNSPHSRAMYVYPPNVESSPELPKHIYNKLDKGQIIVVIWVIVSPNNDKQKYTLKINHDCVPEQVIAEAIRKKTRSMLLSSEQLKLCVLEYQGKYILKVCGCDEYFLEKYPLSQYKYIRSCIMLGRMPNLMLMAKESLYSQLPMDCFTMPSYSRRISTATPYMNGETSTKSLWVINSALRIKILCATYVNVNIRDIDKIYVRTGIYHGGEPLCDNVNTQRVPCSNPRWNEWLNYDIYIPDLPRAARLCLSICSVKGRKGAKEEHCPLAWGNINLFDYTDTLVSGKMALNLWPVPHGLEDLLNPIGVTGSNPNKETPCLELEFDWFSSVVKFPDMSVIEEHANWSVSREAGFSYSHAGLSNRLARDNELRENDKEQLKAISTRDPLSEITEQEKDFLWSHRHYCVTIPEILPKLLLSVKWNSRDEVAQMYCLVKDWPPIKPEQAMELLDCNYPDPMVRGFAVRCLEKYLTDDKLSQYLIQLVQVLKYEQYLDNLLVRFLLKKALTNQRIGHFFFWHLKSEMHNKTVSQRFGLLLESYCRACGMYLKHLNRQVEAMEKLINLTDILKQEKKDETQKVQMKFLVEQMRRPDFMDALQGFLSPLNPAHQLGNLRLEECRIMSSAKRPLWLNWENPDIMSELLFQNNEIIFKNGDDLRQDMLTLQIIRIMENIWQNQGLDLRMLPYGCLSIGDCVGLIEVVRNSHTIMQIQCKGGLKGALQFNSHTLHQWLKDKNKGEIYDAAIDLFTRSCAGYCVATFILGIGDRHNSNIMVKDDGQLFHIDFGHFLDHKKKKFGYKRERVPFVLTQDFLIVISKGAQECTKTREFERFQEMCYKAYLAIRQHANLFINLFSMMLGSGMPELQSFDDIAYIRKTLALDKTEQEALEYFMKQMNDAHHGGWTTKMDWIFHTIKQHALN
Method: as §1, §2

PIK3Cβ_h = biological target: T3, PIK3Cβ_h (Homo sapiens, UniProt P42338); assay: Enzyme binding assay (KINOMEscan); conditions: DiscoveRx
T3 construct: purchased DiscoveRx Corporation
T3 sequence (P42338 whole entry): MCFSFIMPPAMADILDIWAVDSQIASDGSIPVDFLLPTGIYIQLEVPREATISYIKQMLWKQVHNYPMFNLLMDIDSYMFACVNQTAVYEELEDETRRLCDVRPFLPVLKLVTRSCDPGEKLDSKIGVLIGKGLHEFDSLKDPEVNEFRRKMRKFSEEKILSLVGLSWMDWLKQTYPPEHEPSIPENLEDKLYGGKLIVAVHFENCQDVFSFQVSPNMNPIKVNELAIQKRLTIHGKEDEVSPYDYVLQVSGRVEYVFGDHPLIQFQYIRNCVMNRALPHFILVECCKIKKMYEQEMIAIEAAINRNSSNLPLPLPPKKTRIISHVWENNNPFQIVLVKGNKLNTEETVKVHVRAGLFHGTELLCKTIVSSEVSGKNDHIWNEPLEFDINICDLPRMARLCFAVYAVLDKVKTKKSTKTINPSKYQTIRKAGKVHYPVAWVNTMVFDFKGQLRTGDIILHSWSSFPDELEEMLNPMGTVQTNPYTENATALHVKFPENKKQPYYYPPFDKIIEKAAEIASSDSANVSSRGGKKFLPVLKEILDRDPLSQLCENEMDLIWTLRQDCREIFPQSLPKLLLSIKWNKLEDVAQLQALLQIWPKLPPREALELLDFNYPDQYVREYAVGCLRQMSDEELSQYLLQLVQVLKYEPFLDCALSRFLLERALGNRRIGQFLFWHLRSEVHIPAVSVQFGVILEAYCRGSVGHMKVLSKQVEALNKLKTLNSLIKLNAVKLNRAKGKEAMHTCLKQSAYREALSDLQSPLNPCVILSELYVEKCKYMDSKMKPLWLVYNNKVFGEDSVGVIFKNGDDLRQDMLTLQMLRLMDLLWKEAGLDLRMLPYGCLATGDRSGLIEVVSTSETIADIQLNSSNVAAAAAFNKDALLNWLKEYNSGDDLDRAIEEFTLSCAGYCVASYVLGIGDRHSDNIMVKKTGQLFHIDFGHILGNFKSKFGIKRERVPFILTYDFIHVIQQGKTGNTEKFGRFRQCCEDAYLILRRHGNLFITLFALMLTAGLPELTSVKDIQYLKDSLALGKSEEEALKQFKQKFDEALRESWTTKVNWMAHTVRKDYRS
Method: as §1, §2

PIK3Cγ_h = biological target: T4, PIK3Cγ_h (Homo sapiens, UniProt P48736); assay: Enzyme binding assay (KINOMEscan); conditions: DiscoveRx
T4 construct: purchased DiscoveRx Corporation
T4 sequence (P48736 whole entry): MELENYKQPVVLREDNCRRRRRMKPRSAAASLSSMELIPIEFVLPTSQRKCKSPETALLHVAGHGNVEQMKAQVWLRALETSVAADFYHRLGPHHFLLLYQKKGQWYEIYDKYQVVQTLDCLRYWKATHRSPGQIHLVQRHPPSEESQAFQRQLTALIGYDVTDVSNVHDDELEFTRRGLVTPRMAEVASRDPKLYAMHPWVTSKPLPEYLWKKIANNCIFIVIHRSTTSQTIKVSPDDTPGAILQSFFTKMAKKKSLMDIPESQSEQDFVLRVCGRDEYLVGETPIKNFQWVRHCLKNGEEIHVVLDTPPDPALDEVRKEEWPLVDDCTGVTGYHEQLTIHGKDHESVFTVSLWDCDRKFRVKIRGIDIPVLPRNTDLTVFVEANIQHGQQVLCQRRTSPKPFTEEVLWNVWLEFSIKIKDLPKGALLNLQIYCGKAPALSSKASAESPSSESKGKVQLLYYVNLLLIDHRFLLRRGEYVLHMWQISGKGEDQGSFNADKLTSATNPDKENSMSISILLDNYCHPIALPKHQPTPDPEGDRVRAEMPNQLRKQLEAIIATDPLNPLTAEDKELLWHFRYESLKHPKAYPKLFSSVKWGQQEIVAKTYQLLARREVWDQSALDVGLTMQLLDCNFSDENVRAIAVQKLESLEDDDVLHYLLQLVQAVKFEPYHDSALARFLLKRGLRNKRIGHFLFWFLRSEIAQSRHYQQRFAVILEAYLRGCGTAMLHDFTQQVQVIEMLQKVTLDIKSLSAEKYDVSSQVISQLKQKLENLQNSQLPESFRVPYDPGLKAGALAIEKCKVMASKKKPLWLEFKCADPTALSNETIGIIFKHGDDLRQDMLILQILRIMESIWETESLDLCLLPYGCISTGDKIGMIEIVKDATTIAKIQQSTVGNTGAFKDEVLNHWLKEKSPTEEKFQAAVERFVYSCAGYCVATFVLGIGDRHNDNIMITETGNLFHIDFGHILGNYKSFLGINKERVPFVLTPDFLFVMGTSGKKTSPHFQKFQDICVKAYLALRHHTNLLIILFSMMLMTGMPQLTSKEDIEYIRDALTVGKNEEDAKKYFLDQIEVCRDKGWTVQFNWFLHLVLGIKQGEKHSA
Method: as §1, §2

PIK3Cδ_h = biological target: T5, PIK3Cδ_h (Homo sapiens, UniProt O00329); assay: Enzyme binding assay (KINOMEscan); conditions: DiscoveRx
T5 construct: purchased DiscoveRx Corporation
T5 sequence (O00329 1-1044): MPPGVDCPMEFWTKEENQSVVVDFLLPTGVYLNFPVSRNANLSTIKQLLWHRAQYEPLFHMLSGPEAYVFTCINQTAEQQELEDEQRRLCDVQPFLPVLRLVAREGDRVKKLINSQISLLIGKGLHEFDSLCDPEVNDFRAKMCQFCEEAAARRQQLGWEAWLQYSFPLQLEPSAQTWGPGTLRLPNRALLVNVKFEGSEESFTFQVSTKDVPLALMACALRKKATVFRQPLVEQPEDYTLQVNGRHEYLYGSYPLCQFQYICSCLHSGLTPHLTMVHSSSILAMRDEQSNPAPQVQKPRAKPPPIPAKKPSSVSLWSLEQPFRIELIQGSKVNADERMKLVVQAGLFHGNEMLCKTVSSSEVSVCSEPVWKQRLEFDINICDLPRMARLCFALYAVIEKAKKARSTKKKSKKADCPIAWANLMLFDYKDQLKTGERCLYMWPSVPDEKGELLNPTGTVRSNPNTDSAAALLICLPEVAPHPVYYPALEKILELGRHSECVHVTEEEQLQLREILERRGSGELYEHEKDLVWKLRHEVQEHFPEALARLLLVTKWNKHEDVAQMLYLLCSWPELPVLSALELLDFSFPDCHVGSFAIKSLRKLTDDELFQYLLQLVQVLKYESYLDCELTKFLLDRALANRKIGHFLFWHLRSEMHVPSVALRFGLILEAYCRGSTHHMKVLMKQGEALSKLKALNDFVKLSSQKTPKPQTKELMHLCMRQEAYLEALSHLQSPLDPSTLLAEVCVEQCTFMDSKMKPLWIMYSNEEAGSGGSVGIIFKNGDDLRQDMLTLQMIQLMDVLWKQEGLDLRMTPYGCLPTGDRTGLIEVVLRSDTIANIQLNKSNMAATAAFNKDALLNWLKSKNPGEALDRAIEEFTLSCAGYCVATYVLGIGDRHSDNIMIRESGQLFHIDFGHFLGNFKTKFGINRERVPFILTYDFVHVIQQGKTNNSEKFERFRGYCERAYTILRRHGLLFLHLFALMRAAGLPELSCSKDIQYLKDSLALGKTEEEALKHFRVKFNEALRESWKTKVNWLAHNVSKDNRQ
Method: as §1, §2

[1] = system: Akt phosphorylated at Ser473 in PC-3 cells; assay: Cellular assay: phosphorylation of Akt (Ser473) in PC-3 cells, MSD ELISA; type: cell-based; conditions: 60 min compound incubation, read-out: IC50 pAkt_S473
Method: (§3) Cellular activity of PI3Kβ inhibitors was determined by quantifying the phosphorylation of Akt in PC-3 cells. Akt phosphorylated at Ser473 and Thr308 were measured using an enzyme-linked immunosorbent assay (ELISA; Meso Scale Discovery (MSD), Gaithersburg, Md.) and specific primary antibodies from MSD.
(§4) On day 1, PC3 cells (ATCC #[…]) were seeded into PerkinElmer MW96 plates at 25.000 cells per well, in 75 μl complete culture medium (DMEM high glucose, AQmedia™, D0819, Sigma-Aldrich) containing 10% heat inactivated FCS and incubated at 37° C., […] during 24 hours. On day 2, compound or DMSO (0.3%) was added and cells were further incubated for 60 min at 37° C., 5% CO2 in a total volume of 100 μl of medium.
(§5) The phosphoprotein assay was executed according to vendor instructions in the Phospho-Akt (Ser473) Assay Whole Cell Lysate Kit (MSD #K15100D-3) and the Phospho-Akt (Thr308) Assay Whole Cell Lysate Kit (MSD #K151DYD-3) using the lysis, blocking and wash buffer provided.
(§6) Briefly, at the end of the cell treatment period, media were removed by aspiration and adherent cells were lysed in 50 μl ice-cold lysis buffer. MSD plates are supplied pre-coated with capture antibodies for Phospho-Akt (Ser473 and Thr308). After blocking, lysates from tissue culture plates were added and plates were washed. Then, a solution containing the detection antibody (anti-total Akt conjugated with an electrochemiluminescent compound-MSD Sulfo-tag label) was added. The signals were detected using an MSD SECTOR Imager 6000 and are proportional to the phospho-Akt titres.
(§7) Data were processed. The percentage of inhibition was plotted against the log concentration of test compounds, and the sigmoidal log concentration-effect curve of best fit was calculated by nonlinear regression analysis. From these concentration-response curves, the IC50 values were calculated. Five concentrations were used for curve fitting.

[2] = system: Akt phosphorylated at Thr308 in PC-3 cells; assay: Cellular assay: phosphorylation of Akt (Thr308) in PC-3 cells, MSD ELISA; type: cell-based; conditions: 60 min compound incubation, read-out: IC50 pAkt_Thr308
Method: as §3, §4, §5, §6, §7

Row | SMILES | pKd (MTOR_h) | pKd (PIK3Cα_h) | pKd (PIK3Cβ_h) | pKd (PIK3Cγ_h) | pKd (PIK3Cδ_h) | pIC50 ([1]; Homo sapiens, PC-3, 1 h) | pIC50 ([2]; Homo sapiens, PC-3, 1 h) | pIC50 [1] | pIC50 [2]
1 | Cc1c(F)cccc1Cc1c(CO)nc2ncc(N3CCOCC3)cn12 [Compound 25] | 5.25 | 5.23 | 8.05 | 5.14 | 6.12 | 6.71 | 6.92 | – | –
2 | Cc1c(Cc2c(CO)nc3c(-c4ncc[nH]4)cc(C4=CCOCC4)cn23)cccc1C(F)(F)F [Compound 43] | 5.78 | 6.23 | 9.05 | 5.72 | 7.46 | 7.28 | ~7.23 | – | –
3 | Cc1c(Cc2c(CNCCO)nc3cnc(N4CCOCC4)cn23)cccc1C(F)(F)F [Compound 12] | < 4.52 | < 4.52 | 7.17 | < 4.52 | 5.26 | < 6.29 | < 6.29 | – | –
4 | Cc1c(Cc2c(CNCCCO)nc3ccc(N4CCOCC4)cn23)cccc1C(F)(F)F [Compound 35] | 4.66 | 4.65 | 8.24 | < 4.52 | 6.24 | 7.13 | 7.05 | – | –
5 | Cc1nc2c(CO)cc(C3=CCOCC3)cn2c1Cc1cccc(C(F)(F)F)c1C [Compound 44] | 4.75 | 5.14 | 8.77 | 4.67 | 6.25 | 6.87 | 7.08 | – | –
6 | Cc1c(Cc2c(CO)nc3c(N)cc(N4CCOCC4)cn23)cccc1C(F)(F)F [Compound 45] | 4.73 | 4.84 | 7.04 | 4.80 | 5.46 | 6.84 | 6.78 | – | –
7 | Cc1c(Cc2c(CF)nc3ccc(N4CCOCC4)cn23)cccc1C(F)(F)F [Compound 29] | < 4.52 | 5.16 | 6.90 | 4.84 | 5.67 | 6.81 | 7.30 | – | –
8 | Cc1c(Cc2c(CN3CC4(C3)CS(=O)(=O)C4)nc3ccc(C4=CCOCC4)cn23)cccc1C(F)(F)F [Compound 40] | 4.89 | 6.52 | 9.52 | < 4.52 | 7.36 | 7.82 | ~8.00 | – | –
9 | Cc1c(Cc2c(CN3CC4(C3)CS(=O)(=O)C4)nc3ccc(N4CCOCC4)cn23)cccc1C(F)(F)F [Compound 33] | < 4.52 | 6.23 | 8.52 | < 4.52 | 6.50 | 7.80 | 7.82 | – | –
10 | Cc1c(Cc2c(CN3CCC4(CCS(=O)(=O)C4)C3)nc3ncc(N4CCOCC4)cn23)cccc1C(F)(F)F (single isomer, unassigned) [Compound 24a] | < 4.52 | < 4.52 | 8.19 | < 4.52 | 6.12 | – | – | 6.46 | 6.77
11 | Cc1c(Cc2c(CO)nc3ncc(N4CCOCC4)cn23)cccc1C(F)(F)F [Compound 18] | 4.75 | 5.46 | 8.85 | 4.82 | 6.35 | 7.14 | 7.37 | – | –
12 | Cc1nc2ccc(N3CCOCC3)cn2c1Cc1cccc(C(F)(F)F)c1C [Compound 27] | < 4.52 | 5.02 | 6.44 | < 4.52 | 5.59 | < 6.29 | 6.38 | – | –
13 | Cc1c(Cc2c(CO)nc3c(-c4ccn[nH]4)cc(C4=CCOCC4)cn23)cccc1C(F)(F)F [Compound 42] | 6.82 | 6.28 | 8.60 | 5.97 | 6.73 | 7.12 | ~7.70 | – | –
14 | Cc1c(Cc2c(CN3CCCC4(CNC4)C3)nc3ncc(N4CCOCC4)cn23)cccc1C(F)(F)F [Compound 20] | < 4.52 | < 4.52 | 7.12 | < 4.52 | 5.14 | < 6.29 | < 6.29 | – | –
15 | Cc1c(Cc2c(CC(=O)N3CC(CO)C3)nc3cnc(N4CCOCC4)cn23)cccc1C(F)(F)F [Compound 15] | < 4.52 | < 4.52 | 6.85 | < 4.52 | 4.95 | – | – | – | –
16 | Cc1c(Cl)cccc1Nc1c(CO)nc2ccc(N3CCOCC3)cn12 [Compound 39] | 5.40 | 6.33 | 9.30 | 4.95 | 6.85 | ~7.40 | 7.55 | – | –
17 | Cc1nc2c(C(=O)O)nc(C3=CCOCC3)cn2c1Cc1cccc(C(F)(F)F)c1C [Compound 3] | < 4.52 | 4.94 | 8.85 | < 4.52 | 6.33 | – | < 6.29 | – | –
18 | CCOC(=O)Cc1nc2ccc(N3CCOCC3)cn2c1Cc1cccc(C(F)(F)F)c1C [Compound 30] | < 5.00 | < 5.00 | 6.20 | < 4.52 | 5.24 | – | – | – | –
